# Values quoted from earlier work, collected in patent publication EP0387265B1, “USE OF 5-AMINOSALICYCLIC ACID (5-ASA) FOR THE PRODUCTION OF A PHARMACEUTICAL PREPARATION FOR USE IN REPERFUSION TREATMENT” (priority 1987, dated 1989).
# Where two headings read alike, the source gives them in different places.
# Assays:
# colitis ulcerosa = details: in vivo
# [1] = tested on: acute myocardial ischemia and reperfusion injuries; details: dogs; MPG together with neutrophilic antiserum; compared to a control group which received non-immune serum
# [2] = tested on: reperfusion ischemic injury in the gastric mucosa; details: rats
# [3] = rats
# [4] = in vivo
# [5] = capable of neutralizing the toxic properties of the free radicals of oxygen; 'in contrast to' means not a radical scavenger
# [6] = humans, moderate doses
# [7] = 250 mg intravenously, humans having normal coagulation
# [8] = 100 or 250 mg intravenously, 6 normal test humans
structure (smiles),measurement,setting,value
CC(=O)Oc1ccccc1C(=O)O [acetylsalicylic acid],effect against colitis ulcerosa,colitis ulcerosa,no effect
"CC(S)C(=O)NCC(=O)O (stereo not shown) [MPG, N-2-mercaptopropionyl glycine]",reduced the infarct size,[1],63%
"Nc1ccc(O)c(C(=O)O)c1 [5-ASA, 5-aminosalicylic acid]",protection against reperfusion ischemic injury in the gastric mucosa,[2],offers protection
same,nephrotoxic effect,[3],nephrotoxic effect has been demonstrated
same,side effects,[4],No side effects have been observed which can be related to the substance with certainty
same,radical scavenger,[5],is a radical scavenger
same,nephrotoxic effect,[6],does not have any noticeable nephrotoxic effect
same,effect of fibrinolysis,[7],has not been found to result in any effect
same,effect of the thrombocyte function,[7],has not been found to result in any effect
same,distribution volume,[8],0.4 L/kg
same,half-life,[8],35 min
O=C([O-])c1ccccc1O.[Na+] [sodium salicylate],effect against colitis ulcerosa,colitis ulcerosa,no effect
Nc1ccc(S(=O)(=O)Nc2ccccn2)cc1 [sulfapyridine],protection against reperfusion ischemic injury in the gastric mucosa,[2],not
